# BindingDB's records for patent US20260014133 (St. Jude''s Chidren''s Research Hospital, Inc., 2026)
# Target: DNA damage-binding protein 1/Protein cereblon (Homo sapiens, UniProt Q96SW2)
# Assay: CRBN Fluorescence Polarization Assay
# Experimental: In this competitive fluorescent polarization assay Cy5 conjugated lenalidomide analog (Cy5-O-Len)13 was used as a fluorescent probe. 6×His-CRBN-DDB1 protein (200 nM) and Cy5-O-Len probe (30 nM) were combined in 20 mM HEPES pH 7, 150 mM NaCl, 0.005% Tween-20 assay buffer. 20 μL of this assay cocktail was dispensed into wells of Corning 3821 black 384-well plates. Compounds were transferred to the assay plate from a dose-response plate using a Pintool on a Biomek FXP Laboratory Automation Workstation (Beckman Coulter). The plates were incubated in the dark for 1 hour at room temperature and then read on an Envision plate reader (PerkinElmer, Massachusetts, USA). IC50 values were determined using a proprietary software RISE (Robust Investigation of Screening Experiments), developed in house on the Pipeline Pilot platform (Biovia, v. 17.2.0). Data represent the mean of three independent determinations.
compound,measurement,value
"O=C1CCC(N2Cc3cc(NC(=O)Cc4ccccn4)ccc3C2=O)C(=O)N1 (stereo unspecified) [US20260014133, Compound 28]",IC50,< 1 µM
